The subject of series [1] is Huh7 ET cells. Conditions: for CC50: read-out: HCV replicon CC50, concentration reducing cell viability by 50%, 72 h; for CC90: read-out: HCV replicon CC90, concentration reducing cell viability by 90%, 72 h. As to the method:
Both cell toxicity and HCV replicon inhibition assays were performed in triplicate in wells of a 96-well flat-bottom, white-wall plates (E&K Scientific, Santa Clara, CA) by the Drug Development Division, Southern Research Institute (SRI; Birmingham, AL). […] Prior to the assays, sub-confluent Huh7 ET cultures were seeded in wells of a 96-well plate. Following a 24 h incubation at 37°C in a 5% CO2 incubator, increasing concentrations of the compounds were added to the wells and incubation was continued for an additional 72 h. […] Human interferon α2b was used as a control. The cellular replicon-derived luciferase activity was measured using the Steady-Glo Luciferase Assay System (Promega, Fitchburg, WI) and a fluorescence spectrophotometer. Cytotoxicity of compounds was measured using the CytoTox-ONE Homogeneous Membrane Integrity Assay (Promega). The IC50 and IC90 values of the compounds (compound concentrations inhibiting the replicon by 50% and 90%, respectively) as well as CC50 and CC90 (compound concentration decreasing cell viability by 50% and 90%, respectively) were calculated using GraphPad Prism.
On the technique in general: A replicon is a self-replicating genome or part of one, used to study replication in cells.

Series [2] deals with T1, NS3/4A D168A (Hepatitis C virus genotype 1b, UniProt O92972, D1194A).
T1 construct: The NS3/4A construct represented the individual NS3 proteinase domain N-terminally fused with an NS4A co-factor; 6xHis; purchased AnaSpec (Fremont, CA)
T1 sequence (O92972 1658-1711, stated change not applied): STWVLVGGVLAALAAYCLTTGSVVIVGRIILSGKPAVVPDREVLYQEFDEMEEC
T1 sequence (O92972 1027-1208, looked up, stated change not applied): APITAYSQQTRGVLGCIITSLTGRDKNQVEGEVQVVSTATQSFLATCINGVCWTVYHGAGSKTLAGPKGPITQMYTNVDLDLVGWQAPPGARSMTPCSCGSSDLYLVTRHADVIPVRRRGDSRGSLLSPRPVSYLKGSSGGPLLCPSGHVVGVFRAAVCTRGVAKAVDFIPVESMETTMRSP
In kind it is biochemical, HCV genotype 1b, strain HC-J4. Conditions: recombinant D168A mutant, FRET peptide substrate. The source says:
Reagents were purchased from Sigma unless indicated otherwise. The FRET substrate Ac-DE-D(Edans)-EE-Abu-ψ-[COO]-AS-K(Dabsyl)-NH2, purified recombinant wild-type NS3/4A from HCV genotype 1b, strain HC-J4, and the mutants with the V36M, R155K, A156T, D168A and V170A resistance mutations were from AnaSpec (Fremont, CA). The NS3/4A construct represented the individual NS3 proteinase domain N-terminally fused with an NS4A co-factor and tagged with a 6xHis tag. […] Pyroglutamic acid-Arg-Thr-Lys-Arg-7-amino-4-methylcoumarin was from Peptides International (Louisville, KY). West Nile virus NS2B-NS3 proteinase (strain NY99) was expressed, purified and refolded to restore its functional activity as described earlier. The pET15b-Den2-CF40-Gly-NS3pro 185 plasmid encoding the Dengue virus type 2 NS2B-NS3 protease was a kind gift of Dr. Subhash Vasudevan (Program in Emerging Infectious Diseases, DUKE-NUS Graduate Medical School, Singapore). DV NS2B-NS3 proteinase was expressed purified and refolded to restore its functional activity as described previously, [70]. The expression of the soluble C-terminally truncated human furin construct in Sf9 insect cells (an ovarian cell line from fall armyworm Spodoptera frugiperda; Invitrogen, Carlsbad, CA) infected with the recombinant baculovirus and purification of soluble furin from the medium were described earlier. Original human hepatocarcinoma Huh7 cells were obtained from ATCC (Manassas, VA).
The NS3/4A activity assay was performed at 37°C in triplicate in wells of a 96-well plate in 0.2 ml 50 mM HEPES, pH 7.5, containing 100 mM NaCl, 10 mM DTT, 20% glycerol, the Ac-DE-D(Edans)-EE-Abu-ψ-[COO]-AS-K(Dabsyl)-NH2 substrate (10 µM) and the NS3/4A enzyme (10 nM). Reaction velocity was monitored continuously at λex = 355 nm and λem = 500 nm for 10 min using a Spectramax Gemini EM fluorescence spectrophotometer (Molecular Devices, Sunnyvale, CA) and the initial rate of reaction v was recorded for each reaction. […] Compound stock solutions (10 mM) were made in 100% DMSO. Stocks were then diluted using the assay buffer. As a result, the final DMSO concentration was always below 1% in the assay reactions.
To measure the inhibitory potency of the compounds, their increasing concentrations were pre-incubated with the individual proteinases in the corresponding buffer for 30 min at ambient temperature. At least, 7–9 different concentrations were used for each inhibitor. The residual activity of the enzymes was then measured as above. The IC50 values of the inhibitory compounds were calculated by determining the concentrations of the compounds needed to inhibit 50% of the enzyme activity against the peptide substrate. GraphPad Prism was used as fitting software.

For series [3], the system named is sub-genomic HCV RNA replicon. The experiment in a line: HCV replicon inhibition assay, luciferase reporter in Huh7 ET cells. In kind it is cell-based. Conditions: 72 h; for IC50: concentration reducing viral replication by 50%; for IC90: concentration reducing viral replication by 90%. Here is the method:
To support our in vitro data, the inhibition of HCV RNA replication was then measured using human hepatocarcinoma Huh7 ET cells. These cells express a sub-genomic HCV RNA replicon with a stable luciferase reporter. The replicon contains the 5′-end Internal Ribosome Entry Site (IRES) of HCV which drives the production of a firefly luciferase, ubiquitin, and neomycin phosphotransferase (Neo) fusion protein. Ubiquitin cleavage releases the luciferase and Neo proteins. The IRES element encephalomyocarditis virus controls the translation of the HCV […] proteins NS3-NS5 in the replicon. The NS3 protein cleaves the synthesized HCV polyprotein to release the mature NS3, NS4A, NS4B, NS5A and NS5B proteins that are required for HCV replication. The authentic 3′-end non-translating region of HCV is localized at the 3′-end of the replicon. As a result, the activity of the luciferase reporter is directly proportional to HCV RNA levels and positive control antiviral compounds behave comparably using either luciferase or RNA endpoints.
Human interferon α2b was used as a control.

A word on the IC50: it is the concentration at which inhibition is half-maximal. A word on the IC90: it is the concentration at which the effect reaches the 90% level. A lower IC90 goes with an effect from little substance.

Regarding `S=c1[nH]nc(Nc2nc(SCc3ccccc3)nc3n[nH]c(Cc4nn[nH]n4)c23)s1` [Compound 6], in series [1], the CC50 is greater than 100 µM and the CC90 is greater than 100 µM. Moreover, in series [2], the IC50 is 1.21 µM. Moreover, in series [3], the half-maximal inhibitory concentration (IC50) was greater than 100 µM and the IC90 is greater than 100 µM.
Take `Clc1ccc(Nc2nc(SCc3ccccc3)nc3n[nH]c(Cc4nc5ccccc5s4)c23)cc1` [Compound 5]: in series [1], the CC50 is greater than 100 µM and the CC90 was greater than 100 µM. Further, the IC50 in series [2] amounted to 12.7 µM. In series [3], this molecule gave an IC50 greater than 100 µM and an IC90 greater than 100 µM.
With `Cc1n[nH]c(=S)n1Nc1nc(SCc2ccccc2)nc2n[nH]c(Cc3nn[nH]n3)c12` [Compound 3], in series [1], the CC50 is greater than 100 µM and the CC90 was greater than 100 µM. Moreover, in series [2], the concentration for half-maximal inhibition (IC50) is 8.4 µM. In series [3], the half-maximal inhibitory concentration (IC50) is greater than 100 µM and the concentration for an effect of 90% (IC90) is greater than 100 µM.
Regarding `Oc1ccccc1-c1nnc2sc3c(Cl)c4nn5c(-c6ccccc6O)nnc5sc4c(Cl)c3nn12` [Compound 4], in series [1], the CC50 is greater than 100 µM and the CC90 was greater than 100 µM. Besides, the half-inhibitory concentration (IC50) in series [2] came to 3.35 µM. In series [3], this molecule yielded an IC50 of 28 µM and a concentration for an effect of 90% (IC90) of 99.4 µM.
Consider `S=c1[nH]n2c(COc3cc(Cl)c(OCc4nnc5sc(=S)[nH]n45)cc3Cl)nnc2s1` [Compound 7], for which, in series [1], the CC50 was 86.8 µM and the CC90 was determined as 96.3 µM. The IC50 in series [2] was 1.28 µM. In addition, in series [3], the midpoint of inhibition, the IC50, lay at 9.95 µM and the IC90 came out at 54.4 µM.
In the case of `COc1cc(C2C(C(=O)Nc3ccc(Cl)c(Cl)c3)=C(C)NC(C)=C2C(=O)Nc2ccc(Cl)c(Cl)c2)ccc1O` [Compound 8], in series [1], the CC50 was 14.2 µM and the CC90 was 26.6 µM. Also, in series [2], the IC50 came out at 3.02 µM. In series [3], the IC50 is 13.6 µM and it took 19.2 µM to reach the 90% level (IC90).
Take `Clc1ccc(OCc2nn3c(CCc4nnc5sc(COc6ccc(Cl)cc6)nn45)nnc3s2)cc1` [Compound 2]: in series [1], the CC50 is 9.99 µM and the CC90 came to 22.1 µM. Besides, the half-maximal inhibitory concentration (IC50) in series [2] came out at 4.45 µM. In series [3], this molecule returned an IC50 of 10 µM and a concentration for an effect of 90% (IC90) of 25.2 µM.
For `O=C(Nc1ccccc1)c1cc(S(=O)(=O)Nc2nc3ncccc3[nH]2)c(SSc2cc(Cl)c(C(=O)Nc3ccccc3)cc2S(=O)(=O)Nc2nc3ncccc3[nH]2)cc1Cl` [Compound 1], in series [1], the CC50 was greater than 100 µM and the CC90 was greater than 100 µM. Further, in series [2], the half-maximal inhibitory concentration (IC50) worked out at 0.25 µM. In series [3], the half-inhibitory concentration (IC50) was greater than 100 µM and the concentration for an effect of 90% (IC90) is greater than 100 µM.

Source of the values: article PMC3388044, “Probing of Exosites Leads to Novel Inhibitor Scaffolds of HCV NS3/4A Proteinase” (PLoS ONE, 2012).
